Source: patent publication US10323036B2 (Nimbus Lakshmi, Inc., priority 2016, dated 2019)
Like-named read-outs stand apart in the source and are kept apart here.

Target: human TYK2 (JH2domain-pseudokinase) (Homo sapiens (Human), UniProt P29597)
Assay: TYK2 JH2 Domain Binding Assay (KINOMEscan)
Settings: read-out: JH2 Kd
[1] = Table 5, Tyk2 JH2 Domain Binding Assay

Chain of human TYK2 (JH2domain-pseudokinase) (P29597 556-888): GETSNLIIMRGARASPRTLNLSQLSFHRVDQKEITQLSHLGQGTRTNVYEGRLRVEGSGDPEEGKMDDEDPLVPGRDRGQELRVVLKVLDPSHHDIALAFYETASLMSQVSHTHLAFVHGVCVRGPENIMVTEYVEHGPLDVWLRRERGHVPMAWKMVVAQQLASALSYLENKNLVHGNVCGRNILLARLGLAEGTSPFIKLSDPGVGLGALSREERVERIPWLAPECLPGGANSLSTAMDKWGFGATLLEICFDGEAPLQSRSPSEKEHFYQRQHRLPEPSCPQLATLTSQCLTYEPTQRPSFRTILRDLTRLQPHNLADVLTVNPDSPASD

Row | Kd [1] [pM] | Kd (Table 4, JH2 binding assay) [pM] | Structure (SMILES)
1 | 1000 to 10000 | – | COc1c(Nc2cc(NC(=O)C3CC3)ncc2-c2nnc(C)s2)cccc1-c1ncn(C)n1 [VIII-7, N-(4-((2-methoxy-3-(1-methyl-1H-1,2,4-triazol-3-yl)phenyl)amino)-5-(5-methyl-1,3,4-thiadiazol-2-yl)pyridin-2-yl)cyclopropanecarboxamide]
2 | – | 500 to 1000 | COc1c(Cl)cccc1Nc1cc(Nc2cnc(C(C)(C)OC)c(C#N)n2)nc2[nH]n(C)c(=O)c12 [Compound I-155, 6-((4-((3-chloro-2-methoxyphenyl)amino)-2-methyl-3-oxo-2,3-dihydro-1H-pyrazolo[3,4-b]pyridin-6-yl)amino)-3-(2-methoxypropan-2-yl)pyrazine-2-carbonitrile]
3 | 10000 to 100000 | – | COc1c(Nc2cc(NC(=O)C3CC3)ncc2-c2cccnn2)cccc1-c1ncn(C)n1 [VIII-11, N-(4-((2-methoxy-3-(1-methyl-1H-1,2,4-triazol-3-yl)phenyl)amino)-5-(pyridazin-3-yl)pyridin-2-yl)cyclopropanecarboxamide]
4 | 1000 to 10000 | – | COc1c(Nc2cc(NC(=O)C3CC3)ncc2-c2nnc(CO)o2)cccc1-c1ncn(C)n1 [VIII-5, N-(5-(5-(hydroxymethyl)-1,3,4-oxadiazol-2-yl)-4-((2-methoxy-3-(1-methyl-1H-1,2,4-triazol-3-yl)phenyl)amino)pyridin-2-yl)cyclopropanecarboxamide]
5 | – | 100 to 500 | Cn1[nH]c2nc(Nc3cccc(C(F)(F)F)n3)cc(Nc3ccccc3S(C)(=O)=O)c2c1=O [Compound I-113, 2-methyl-4-((2-(methylsulfonyl)phenyl)amino)-6-((6-(trifluoromethyl)pyridin-2-yl)amino)-1,2-dihydro-3H-pyrazolo[3,4-b]pyridin-3-one]
6 | – | 100 to 500 | Cc1ccc(Nc2cc(Nc3ccccc3S(C)(=O)=O)c3c(=O)n(C)[nH]c3n2)nc1 [Compound I-111, 2-methyl-6-((5-methylpyridin-2-yl)amino)-4-((2-(methylsulfonyl)phenyl)amino)-1,2-dihydro-3H-pyrazolo[3,4-b]pyridin-3-one]
7 | – | 100 to 500 | CN(c1ccccc1Nc1cc(Nc2cc3c(cn2)OCC3)nc2[nH]n(C)c(=O)c12)S(C)(=O)=O [Compound I-226, N-(2-((6-((2,3-dihydrofuro[2,3-c]pyridin-5-yl)amino)-2-methyl-3-oxo-2,3-dihydro-1H-pyrazolo[3,4-b]pyridin-4-yl)amino)phenyl)-N-methylmethanesulfonamide]
8 | – | 100 to 500 | Cc1cc(Nc2cc(Nc3ccccc3S(C)(=O)=O)c3c(=O)n(C)[nH]c3n2)ncc1F [Compound I-107, 6-((5-fluoro-4-methylpyridin-2-yl)amino)-2-methyl-4-((2-(methylsulfonyl)phenyl)amino)-1,2-dihydro-3H-pyrazolo[3,4-b]pyridin-3-one]
9 | – | > 10000 | CCc1ncc(Nc2cc(Nc3cccc(F)c3OC)c3c(=O)n(C)[nH]c3n2)nc1C#N [Compound I-148, 3-ethyl-6-((4-((3-fluoro-2-methoxyphenyl)amino)-2-methyl-3-oxo-2,3-dihydro-1H-pyrazolo[3,4-b]pyridin-6-yl)amino)pyrazine-2-carbonitrile]
10 | 100 to 1000 | – | COc1c(Nc2cc(Nc3cccc(C#N)n3)ncc2-c2nnc(CO)o2)cccc1-c1ncn(C)n1 [VIII-13, 6-((5-(5-(hydroxymethyl)-1,3,4-oxadiazol-2-yl)-4-((2-methoxy-3-(1-methyl-1H-1,2,4-triazol-3-yl)phenyl)amino)pyridin-2-yl)amino)picolinonitrile]
11 | – | 100 to 500 | COc1c(Cl)cccc1Nc1cc(Nc2ccc(C(=O)N3CCOCC3)c(C(F)(F)F)n2)nc2[nH]n(C)c(=O)c12 [Compound I-130, 4-((3-chloro-2-methoxyphenyl)amino)-2-methyl-6-((5-(morpholine-4-carbonyl)-6-(trifluoromethyl)pyridin-2-yl)amino)-1,2-dihydro-3H-pyrazolo[3,4-b]pyridin-3-one]
12 | – | 1000 to 10000 | COc1c(Cl)cccc1Nc1cc(Nc2cc3n(n2)CCCC3)nc2[nH]n(C)c(=O)c12 [Compound I-222, 4-((3-chloro-2-methoxyphenyl)amino)-2-methyl-6-((4,5,6,7-tetrahydropyrazolo[1,5-a]pyridin-2-yl)amino)-1,2-dihydro-3H-pyrazolo[3,4-b]pyridin-3-one]
13 | – | 100 to 500 | Cn1[nH]c2nc(Nc3ccc(C#N)cn3)cc(Nc3ccccc3S(C)(=O)=O)c2c1=O [Compound I-139, 6-((2-methyl-4-((2-(methylsulfonyl)phenyl)amino)-3-oxo-2,3-dihydro-1H-pyrazolo[3,4-b]pyridin-6-yl)amino)nicotinonitrile]

More lines, now with the values behind:

Row | Structure (SMILES) | Kd [1] [pM] | Kd (Table 4, JH2 binding assay) [pM]
14 | COc1c(Nc2cc(Nc3cc(C)nc(C)n3)nc3[nH]n(C)c(=O)c23)cccc1-c1ncn(C)n1 [Compound I-22, 6-((2,6-dimethylpyrimidin-4-yl)amino)-4-((2-methoxy-3-(1-methyl-1H-1,2,4-triazol-3-yl)phenyl)amino)-2-methyl-1,2-dihydro-3H-pyrazolo[3,4-b]pyridin-3-one] | – | 500 to 1000
15 | COc1c(Nc2cc(Nc3cc(C)ccn3)nc3[nH]n(C)c(=O)c23)cccc1-c1nccs1 [Compound I-43] | – | > 10000
16 | COc1c(Cl)cccc1Nc1cc(Nc2cc(CO)ccn2)nc2[nH]n(C)c(=O)c12 [Compound I-101, 4-((3-chloro-2-methoxyphenyl)amino)-6-((4-(hydroxymethyl)pyridin-2-yl)amino)-2-methyl-1,2-dihydro-3H-pyrazolo[3,4-b]pyridin-3-one] | – | 1000 to 10000
17 | COCc1ccnc(Nc2cc(Nc3ccc(C4CC4)cc3S(C)(=O)=O)c3c(=O)n(C)[nH]c3n2)c1 [Compound I-214, 4-((4-cyclopropyl-2-(methylsulfonyl)phenyl)amino)-6-((4-(methoxymethyl)pyridin-2-yl)amino)-2-methyl-1,2-dihydro-3H-pyrazolo[3,4-b]pyridin-3-one] | – | 100 to 500
18 | Cc1ccc(Nc2cc(NC(=O)C3CC3)nc3[nH]n(C)c(=O)c23)c(N(C)S(C)(=O)=O)c1 [Compound I-229, N-(2-methyl-4-((4-methyl-2-(N-methylmethylsulfonamido)phenyl)amino)-3-oxo-2,3-dihydro-1H-pyrazolo[3,4-b]pyridin-6-yl)cyclopropanecarboxamide] | – | < 100
19 | CN(c1cc(C2CC2)ccc1Nc1cc(NC(=O)C2CC2)nc2[nH]n(C)c(=O)c12)S(C)(=O)=O [Compound I-232] | – | < 100
20 | COc1c(Cl)cccc1Nc1cc(Nc2ccc(C#N)cn2)nc2[nH]n(C)c(=O)c12 [Compound I-98, 6-((4-((3-chloro-2-methoxyphenyl)amino)-2-methyl-3-oxo-2,3-dihydro-1H-pyrazolo[3,4-b]pyridin-6-yl)amino)nicotinonitrile] | – | 500 to 1000
21 | COc1c(F)cccc1Nc1cc(Nc2ccccn2)nc2[nH]n(C)c(=O)c12 [Compound I-80, 4-((3-fluoro-2-methoxyphenyl)amino)-2-methyl-6-(pyridin-2-ylamino)-1,2-dihydro-3H-pyrazolo[3,4-b]pyridin-3-one] | – | 1000 to 10000
22 | COc1c(Nc2cc(NC(=O)C3CC3)nc3[nH]n(C)c(=O)c23)cccc1-c1ccn(C)n1 [Compound I-57] | – | < 100
23 | COc1c(Nc2cc(NC(=O)C3CC3)nc3[nH]n(C)c(=O)c23)cccc1-c1nc(C)n(C)n1 [Compound I-53] | – | 100 to 500
24 | Cn1[nH]c2nc(Nc3ccc(C#N)cn3)cc(Nc3ccc(C4CC4)cc3S(C)(=O)=O)c2c1=O [Compound I-213, 6-((4-((4-cyclopropyl-2-(methylsulfonyl)phenyl)amino)-2-methyl-3-oxo-2,3-dihydro-1H-pyrazolo[3,4-b]pyridin-6-yl)amino)nicotinonitrile] | – | 100 to 500
25 | CCNC(=O)c1cccc(Nc2cc(Nc3cccc(-c4nnn(C)n4)c3OC)c3c(=O)n(C)[nH]c3n2)n1 [Compound I-66, N-ethyl-6-((4-((2-methoxy-3-(2-methyl-2H-tetrazol-5-yl)phenyl)amino)-2-methyl-3-oxo-2,3-dihydro-1H-pyrazolo[3,4-b]pyridin-6-yl)amino)picolinamide] | – | 500 to 1000
26 | COc1c(Nc2cc(Nc3ccn(C)n3)nc3[nH]n(C)c(=O)c23)cccc1-c1nnn(C)n1 [Compound I-13, 4-((2-methoxy-3-(2-methyl-2H-tetrazol-5-yl)phenyl)amino)-2-methyl-6-((1-methyl-1H-pyrazol-3-yl)amino)-1,2-dihydro-3H-pyrazolo[3,4-b]pyridin-3-one] | – | < 100
27 | COc1c(Nc2cc(Nc3cncc(C#N)n3)nc3[nH]n(C)c(=O)c23)cccc1-c1nnn(C)n1 [Compound I-64, 6-((4-((2-methoxy-3-(2-methyl-2H-tetrazol-5-yl)phenyl)amino)-2-methyl-3-oxo-2,3-dihydro-1H-pyrazolo[3,4-b]pyridin-6-yl)amino)pyrazine-2-carbonitrile] | – | < 100
28 | COc1c(Nc2cc(NC(=O)C3CC3)nc3[nH]n(C)c(=O)c23)cccc1-c1cnn(C)c1 [Compound I-55, N-(4-((2-methoxy-3-(1-methyl-1H-pyrazol-4-yl)phenyl)amino)-2-methyl-3-oxo-2,3-dihydro-1H-pyrazolo[3,4-b]pyridin-6-yl)cyclopropanecarboxamide] | – | 500 to 1000
29 | CN(c1ccccc1Nc1cc(NC(=O)C2CC2)nc2[nH]n(C)c(=O)c12)S(C)(=O)=O [Compound I-129, N-(2-methyl-4-((2-(N-methylmethylsulfonamido)phenyl)amino)-3-oxo-2,3-dihydro-1H-pyrazolo[3,4-b]pyridin-6-yl)cyclopropanecarboxamide] | – | 100 to 500
30 | CCc1ccc(Nc2cc(NC(=O)C3CC3)nc3[nH]n(C)c(=O)c23)c(S(C)(=O)=O)c1 [Compound I-152, N-(4-((4-ethyl-2-(methylsulfonyl)phenyl)amino)-2-methyl-3-oxo-2,3-dihydro-1H-pyrazolo[3,4-b]pyridin-6-yl)cyclopropanecarboxamide] | – | 500 to 1000
31 | CN(c1cc(C2CCOCC2)ccc1Nc1cc(NC(=O)C2CC2)nc2[nH]n(C)c(=O)c12)S(C)(=O)=O [Compound I-234] | – | 100 to 500
32 | Cc1cc(Nc2cc(Nc3ccc(C4CC4)cc3S(C)(=O)=O)c3c(=O)n(C)[nH]c3n2)nc(C)n1 [Compound I-206, 4-((4-cyclopropyl-2-(methylsulfonyl)phenyl)amino)-6-((2,6-dimethylpyrimidin-4-yl)amino)-2-methyl-1,2-dihydro-3H-pyrazolo[3,4-b]pyridin-3-one] | – | 500 to 1000
